For assay [1], the target named is T1, Prostaglandin G/H synthase 1 (Mus musculus, UniProt P22437).
T1 sequence (P22437 whole entry): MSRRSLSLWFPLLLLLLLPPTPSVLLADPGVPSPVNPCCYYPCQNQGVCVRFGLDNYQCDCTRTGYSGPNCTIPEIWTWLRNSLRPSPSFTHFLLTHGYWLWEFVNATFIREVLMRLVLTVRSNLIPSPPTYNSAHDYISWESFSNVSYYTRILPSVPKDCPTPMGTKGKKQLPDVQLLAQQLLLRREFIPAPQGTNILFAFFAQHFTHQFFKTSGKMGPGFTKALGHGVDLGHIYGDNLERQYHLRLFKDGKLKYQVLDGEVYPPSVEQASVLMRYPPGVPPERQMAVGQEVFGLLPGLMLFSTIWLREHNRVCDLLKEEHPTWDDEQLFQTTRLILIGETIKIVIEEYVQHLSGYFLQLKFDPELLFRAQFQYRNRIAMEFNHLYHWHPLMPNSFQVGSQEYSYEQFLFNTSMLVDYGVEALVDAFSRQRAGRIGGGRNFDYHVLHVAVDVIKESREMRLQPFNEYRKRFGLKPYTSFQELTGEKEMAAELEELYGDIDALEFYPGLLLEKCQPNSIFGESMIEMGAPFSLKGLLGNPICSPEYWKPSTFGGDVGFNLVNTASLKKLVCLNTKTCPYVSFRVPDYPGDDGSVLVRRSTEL
The assay is described as follows: Inhibition of COX1 in mouse J774 cells assessed as arachidonic acid-induced PGE2 levels by radio immunoassay. Format: cell-based.

The species entered for assay [2] is Mus musculus. As to the kind of experiment: Selectivity ratio of IC50 for mouse COX1 to IC50 for mouse COX2.
Assay [3] has as its target T2, Prostaglandin G/H synthase 2 (Mus musculus, UniProt Q05769).
T2 sequence (Q05769 whole entry): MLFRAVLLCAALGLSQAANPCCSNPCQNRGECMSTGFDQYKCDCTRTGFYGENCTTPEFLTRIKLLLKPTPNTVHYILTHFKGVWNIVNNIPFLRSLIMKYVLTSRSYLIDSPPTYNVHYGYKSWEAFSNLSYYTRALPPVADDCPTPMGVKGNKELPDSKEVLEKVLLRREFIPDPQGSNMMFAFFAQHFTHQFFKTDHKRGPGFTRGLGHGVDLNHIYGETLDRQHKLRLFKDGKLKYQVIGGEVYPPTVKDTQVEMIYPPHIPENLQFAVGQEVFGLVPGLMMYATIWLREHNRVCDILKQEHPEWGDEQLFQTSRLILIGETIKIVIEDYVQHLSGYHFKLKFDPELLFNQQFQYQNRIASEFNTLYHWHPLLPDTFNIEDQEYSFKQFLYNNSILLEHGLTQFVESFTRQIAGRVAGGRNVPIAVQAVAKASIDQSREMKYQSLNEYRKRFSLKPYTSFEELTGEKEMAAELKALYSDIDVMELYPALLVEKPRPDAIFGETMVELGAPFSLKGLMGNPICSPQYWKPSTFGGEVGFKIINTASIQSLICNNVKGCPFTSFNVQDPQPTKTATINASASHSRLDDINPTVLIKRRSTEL
Description: Inhibition of COX2 in LPS-stimulated J774 cells assessed as inhibition of PGE2 levels by radioimmunoassay

Assay [4] concerns the target T3, Prostaglandin G/H synthase 2 (Homo sapiens, UniProt P35354).
T3 sequence (P35354 whole entry): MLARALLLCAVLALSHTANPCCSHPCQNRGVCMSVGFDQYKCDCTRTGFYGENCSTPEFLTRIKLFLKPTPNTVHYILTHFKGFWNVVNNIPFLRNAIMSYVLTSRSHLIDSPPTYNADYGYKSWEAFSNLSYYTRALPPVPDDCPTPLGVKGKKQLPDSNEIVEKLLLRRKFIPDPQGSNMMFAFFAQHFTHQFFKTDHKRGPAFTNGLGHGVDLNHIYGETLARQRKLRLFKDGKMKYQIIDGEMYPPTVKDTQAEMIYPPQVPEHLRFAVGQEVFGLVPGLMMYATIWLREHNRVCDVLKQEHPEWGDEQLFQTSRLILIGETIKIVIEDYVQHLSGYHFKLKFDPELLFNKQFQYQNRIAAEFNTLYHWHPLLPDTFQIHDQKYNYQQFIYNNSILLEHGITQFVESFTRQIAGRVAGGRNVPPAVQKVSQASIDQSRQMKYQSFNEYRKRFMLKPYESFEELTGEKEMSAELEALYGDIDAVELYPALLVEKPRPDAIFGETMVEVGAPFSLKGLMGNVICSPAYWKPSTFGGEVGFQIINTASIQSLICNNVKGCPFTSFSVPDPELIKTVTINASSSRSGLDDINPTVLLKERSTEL
As to the kind of experiment: Inhibition of COX2 in LPS-induced monocyte assessed as PGE2 production in human whole blood.

For assay [5], the target named is Prostaglandin G/H synthase 1 (Homo sapiens, UniProt P23219). As to the kind of experiment: Inhibition of COX1 in human whole blood assessed as TXB2 production. Format: tissue-based.
Assay [6] has as its system Rattus norvegicus. As to the kind of experiment: Antiinflammatory activity against carrageenan-induced hyperalgesia in rat assessed as paw pressure in rat at 20 mg/kg, po after 30 mins. The class given is functional.
Assay [7] has as its system Rattus norvegicus. The assay is described as follows: Antiinflammatory activity against carrageenan-induced hyperalgesia in rat assessed as paw pressure in rat at 20 mg/kg, po after 60 mins. The class given is functional.
Assay [8] concerns Rattus norvegicus. As to the kind of experiment: Antiinflammatory activity against carrageenan-induced hyperalgesia in rat assessed as paw pressure in rat at 20 mg/kg, po after 120 mins. The class given is functional.
Assay [9] deals with Rattus norvegicus. The assay is described as follows: Antiinflammatory activity against carrageenan-induced paw edema in rat at 20 mg/kg, po. Format: functional.
Assay [10] has as its system Mus musculus. The assay is described as follows: Analgesic activity against acetic acid induced abdominal constriction in Swiss Albino mouse assessed as number of writhings at 10 mg/kg, po after 10 mins. The class given is functional, Abdomen.
Assay [11] concerns Mus musculus. As to the kind of experiment: Analgesic activity against acetic acid induced abdominal constriction in Swiss Albino mouse assessed as number of writhings at 20 mg/kg, po after 10 mins. The class given is functional, Abdomen.

The structures appear in SMILES notation. pIC50: −log10 of the molar value. Some results are limits rather than exact numbers.

Prostaglandin G/H synthase 1 (Homo sapiens, UniProt P23219), sequence (P23219 whole entry): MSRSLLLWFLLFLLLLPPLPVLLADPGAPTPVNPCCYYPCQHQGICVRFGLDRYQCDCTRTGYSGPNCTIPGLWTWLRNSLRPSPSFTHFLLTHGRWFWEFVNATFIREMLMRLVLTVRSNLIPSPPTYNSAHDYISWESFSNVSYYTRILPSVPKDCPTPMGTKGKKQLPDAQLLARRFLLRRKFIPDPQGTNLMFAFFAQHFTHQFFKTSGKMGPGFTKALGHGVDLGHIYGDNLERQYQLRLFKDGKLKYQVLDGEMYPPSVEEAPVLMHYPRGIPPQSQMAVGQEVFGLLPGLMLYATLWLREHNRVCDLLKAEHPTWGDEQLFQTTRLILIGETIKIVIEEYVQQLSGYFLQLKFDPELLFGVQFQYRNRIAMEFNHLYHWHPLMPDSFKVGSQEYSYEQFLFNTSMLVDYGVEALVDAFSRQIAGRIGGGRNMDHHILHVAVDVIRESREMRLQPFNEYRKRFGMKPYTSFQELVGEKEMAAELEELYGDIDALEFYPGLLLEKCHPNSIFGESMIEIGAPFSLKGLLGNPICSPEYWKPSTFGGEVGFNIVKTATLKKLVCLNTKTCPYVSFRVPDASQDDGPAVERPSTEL

Regarding `CCOC(=O)C(=O)c1cc(-c2ccc(OC)cc2)n(-c2ccc(S(C)(=O)=O)cc2)c1C`, the pIC50 in assay [1] was less than 4.00.
Take `CCOC(=O)C(=O)c1cc(-c2ccc(F)c(F)c2)n(-c2ccc(S(C)(=O)=O)cc2)c1C`: the pIC50 in assay [1] was less than 4.00.
Regarding `CCOC(=O)C(=O)c1cc(-c2ccc(S(C)(=O)=O)cc2)n(-c2ccc(OC)cc2)c1C`, the pIC50 in assay [1] was less than 4.00; in assay [3] it was 6.03. Besides, in the assay listed under Mus musculus [2], the Ratio IC50 is more than 100.
For `CCOC(=O)Cc1cc(-c2ccc(F)c(F)c2)n(-c2ccc(S(C)(=O)=O)cc2)c1C`, the figures for the pIC50 in assay [1] and in assay [3] were less than 4.00 and 5.27, respectively. Moreover, the Ratio IC50 in the assay filed under Mus musculus [2] was more than 19.
In the case of `CCOC(=O)Cc1cc(-c2ccc(F)cc2)n(-c2ccc(S(C)(=O)=O)cc2)c1C`, the pIC50 was less than 4.00 in assay [1] and 6.40 in [3]. Also, the Ratio IC50 in the assay listed under Mus musculus [2] was more than 250.
Consider `CCOC(=O)C(=O)c1cc(-c2ccccc2)n(-c2ccc(S(C)(=O)=O)cc2)c1C`, for which the negative logarithm of the IC50 (pIC50) in assay [1] was less than 4.00.
In the case of `CCOC(=O)Cc1cc(-c2ccc(S(C)(=O)=O)cc2)n(-c2ccc(F)c(F)c2)c1C`, the negative logarithm of the IC50 (pIC50) in [1] was less than 4.00. For the same compound, in the assay listed under Mus musculus [2], the Ratio IC50 is more than 5000.
Regarding `CCOC(=O)C(=O)c1cc(-c2ccc(S(C)(=O)=O)cc2)n(-c2ccc(F)cc2)c1C`, the pIC50 in [1] is less than 4.00; in assay [3] it was 4.96. In addition, the Ratio IC50 in the assay filed under Mus musculus [2] was more than 9.
As for `CCOC(=O)Cc1cc(-c2ccc(C)cc2)n(-c2ccc(S(C)(=O)=O)cc2)c1C`, the pIC50 in assay [1] was less than 4.00; in assay [3] it was 5.71. Further, in the assay listed under Mus musculus [2], the Ratio IC50 is more than 50.
For `CCOC(=O)Cc1cc(-c2ccccc2)n(-c2ccc(S(C)(=O)=O)cc2)c1C`, the pIC50 in [1] is less than 4.00.
With `CCOC(=O)Cc1cc(-c2ccc(S(C)(=O)=O)cc2)n(-c2ccc(F)cc2)c1C`, the figures for the pIC50 in assay [1] and in [3] were less than 4.00 and 8.00, respectively. The Ratio IC50 in the assay filed under Mus musculus [2] is more than 10000.
On to `CCOC(=O)C(=O)c1cc(-c2ccc(C(F)(F)F)cc2)n(-c2ccc(S(C)(=O)=O)cc2)c1C`, for which the pIC50 in assay [1] is less than 4.00.
Consider `CCOC(=O)Cc1cc(-c2ccc(OC)cc2)n(-c2ccc(S(C)(=O)=O)cc2)c1C`, for which the pIC50 in assay [1] was less than 4.00; in assay [3] it was 6.26. The Ratio IC50 in the assay filed under Mus musculus [2] is more than 200.
On to `CCOC(=O)C(=O)c1cc(-c2ccc(S(C)(=O)=O)cc2)n(-c2ccc(F)c(F)c2)c1C`, for which the pIC50 in assay [1] was less than 4.00; in [3], 5.08. Further, the Ratio IC50 in the assay filed under Mus musculus [2] was more than 12.
For the compound `CCOC(=O)C(=O)c1cc(-c2ccc(F)cc2)n(-c2ccc(S(C)(=O)=O)cc2)c1C`, in [1], the pIC50 is less than 4.00.
In the case of `CCOC(=O)Cc1cc(-c2ccc(S(C)(=O)=O)cc2)n(-c2cccc(F)c2)c1C`, the pIC50 in [1] was less than 4.00; in assay [4], 5.68; in assay [5] it was 4.69. In the assay filed under Mus musculus [2], the Ratio IC50 is more than 10000. For the same compound, the Activity was 55.2 g in the assay with Rattus norvegicus [6]; 49.8 g with Rattus norvegicus [7]; 43.4 g in the assay with Rattus norvegicus [8]; 95.5% in the assay with Rattus norvegicus [9]; 28.9 in the assay with Mus musculus [10]; 15.7 in the assay on Mus musculus [11].
Regarding `CCOC(=O)C(=O)c1cc(-c2ccc(S(C)(=O)=O)cc2)n(-c2cccc(F)c2)c1C`, the pIC50 in assay [1] was less than 4.00; in assay [3], 6.05. Besides, in the assay filed under Mus musculus [2], the Ratio IC50 was more than 100.
Take `CCOC(=O)C(=O)c1cc(-c2ccc(C)cc2)n(-c2ccc(S(C)(=O)=O)cc2)c1C`: in assay [1], the pIC50 was less than 4.00.
As for `CCOC(=O)Cc1cc(-c2ccc(S(C)(=O)=O)cc2)n(-c2ccc(OC)cc2)c1C`, the pIC50 is less than 4.00 in assay [1] and 7.59 in assay [3]. Besides, in the assay filed under Mus musculus [2], the Ratio IC50 is more than 4000.
Take `CCOC(=O)Cc1cc(-c2ccc(C(F)(F)F)cc2)n(-c2ccc(S(C)(=O)=O)cc2)c1C`: in assay [1], the negative logarithm of the IC50 (pIC50) was less than 4.00.

The record behind these values is ChEMBL document CHEMBL1137573, “Cyclooxygenase-2 inhibitors. 1,5-diarylpyrrol-3-acetic esters with enhanced inhibitory activity toward cyclooxygenase-2 and improved cyclooxygenase-2/cyclooxygenase-1 selectivity” (J Med Chem, 2007).
